In patent US20240294551A1 (AMGEN INC., priority 2022, published 2024) one finds IC50 data, which are given here for 15 molecules.

Counter-ions that a name gives are not always drawn. Like-named read-outs stand apart in the source and are kept apart here.

Assay [1] deals with His-tagged KRAS G12D protein (Homo sapiens (Human), UniProt P01116, G12D). The assay is described as follows: KRAS G12D TR-FRET Assay. The assay is classed as binding. Put shortly: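 Each incubation ran at room temperature: enzyme with compound for 30 minutes, peptide for one hour, and detection reagents (0.4 nM europium anti-6×His, 5 nM streptavidin-d2) for one hour more. Protein and peptide stocks were each diluted to 20 nM before addition.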
(In general: Time-resolved FRET reads energy transfer from a long-lived donor to a nearby acceptor.)

Assay [2] concerns AsPC-1 cells. The assay can be described thus: AsPC-1 CTG Assay (CellTiter-Glo cell viability). The assay is classed as cell-based, human. As to conditions: first value of the cell, read-out: G12D/C/V Cell Proliferation CTG (72 h) AsPC-1. How it is done: AsPC-1 and SW620 CTG Assay Protocols
AsPC-1 (human pancreatic adenocarcinoma; ATCC CRL-1682) or SW620 (human colon adenocarcinoma; ATCC CCL-227) cells were cultured in RPMI 1640 medium containing 10% fetal bovine serum and 1× penicillin/streptomycin/L-glutamine. Cells were seeded in 384-well plates at a density of 3.33E+04 cells/mL and incubated at 37° C., 5% CO2, overnight. Serially-diluted compound or DMSO was added to the cells, and plates were incubated at 37° C., 5% CO2 for 72 h. Cell viability was measured using a CellTiter-Glo® Luminescent Cell Viability Assay kit (Promega) according to the manufacturer's protocol. The luminescence signal of treated samples was normalized to DMSO control, and data were analyzed using a 4-parameter logistic model to calculate IC50 values.

Assay [3] has as its system Phosphorylation of ERK1/2 in AsPC-1 cells. The assay can be described thus: Phospho-ERK1/2 MSD Assay. It counts as cell-based, human. The essentials: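 Read-out: MSD electrochemiluminescent detection of phosphorylated ERK1/2 in whole-cell lysates, fitted to a 4-parameter logistic curve for IC50. Prior to lysis, AsPC-1 cells (25,000 per well) received a 2 h compound dose-response at 37 °C.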

Assay [4] addresses GDP-bound KRAS protein (aa 1-169), containing both G12D and C118A amino acid substitutions (Homo sapiens (Human), UniProt P01116, C118A/G12D). The assay is described as follows: KRAS G12D Coupled Nucleotide Exchange Assay. It counts as biochemical.
Setting [5] is: TR-FRET, read-out: KRAS G12D Binding.
Where [6] appears, read: Homo sapiens, ASPC1, 72 h, AsPC-1 cells (G12D), 72 h.
Where [7] appears, read: Homo sapiens, ASPC1, 2 h, read-out: 2 h p-ERK (AsPC-1 cells).
Where [8] appears, read: 2 hours compound pre-incubation, read-out: KRAS G12D Coupled Exchange.
The mark [9] stands for this setting: read-out: KRAS G12D Binding IC50.
The mark [10] stands for this setting: Homo sapiens, ASPC1, 72 h, AsPC-1, 72 h.
The mark [11] stands for this setting: Homo sapiens, ASPC1, 2 h, read-out: 2 h p-ERK (AsPC-1 cells), IC50.
Where [12] appears, read: read-out: KRAS G12D Coupled Exchange IC50.
Setting [13] is: 2 h, read-out: 2 h p-ERK (AsPC-1 cells), IC50.

His-tagged KRAS G12D protein, sequence (P01116 other isoform, or with tags, fused parts or gaps G12D): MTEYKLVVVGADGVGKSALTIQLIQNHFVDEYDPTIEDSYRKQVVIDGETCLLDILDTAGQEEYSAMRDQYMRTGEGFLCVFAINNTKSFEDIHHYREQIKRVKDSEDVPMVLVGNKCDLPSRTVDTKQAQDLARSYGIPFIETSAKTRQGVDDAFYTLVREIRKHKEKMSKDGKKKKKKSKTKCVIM
GDP-bound KRAS protein (aa 1-169), containing both G12D and C118A amino acid substitutions, sequence (P01116 other isoform, or with tags, fused parts or gaps G12D/C118A): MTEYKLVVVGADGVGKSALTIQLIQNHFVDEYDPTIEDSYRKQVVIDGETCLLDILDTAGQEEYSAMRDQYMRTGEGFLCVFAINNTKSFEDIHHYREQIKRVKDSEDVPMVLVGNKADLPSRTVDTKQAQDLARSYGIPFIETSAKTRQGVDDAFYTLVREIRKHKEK

`OC1CCCCc2c(Cl)cc3[nH]ncc3c2-c2ncc3c(nc(OC[C@@]45CCCN4C[C@H](F)C5)nc3c2F)N2CCC[C@@H](C1)C2` (mixture of isomers) [Example 385, bis(2,2,2-trifluoroacetate) salt]: the IC50 amounted to 0.031 µM in assay [1] (setting [5]), 0.211 µM in assay [2] (setting [6]), 0.137 µM in assay [3] (setting [7]) and 0.016 µM in assay [4] (setting [8]).
Regarding `Cc1cc2[nH]ncc2c2c1CCCOC(=O)O[C@H]1CN(CC[C@H]1F)c1nc(OC[C@@]34CCCN3C[C@H](F)C4)nc3c(F)c-2ncc13` (racemic) [Example 93], the IC50 amounted to 0.014 µM in assay [1] (setting [9]), 1.25 µM in assay [2] (setting [10]), 0.18 µM in assay [3] (setting [11]) and 0.005 µM in assay [4] (setting [12]).
With `O=C1CCCCc2c(Cl)cc3[nH]ncc3c2-c2ncc3c(nc(OC[C@@]45CCCN4C[C@H](F)C5)nc3c2F)N2CCC3CN1[C@H]3C2` (mixture of isomers) [Example 164], the IC50 in assay [1] (setting [9]) came out at 0.01 µM; in assay [2] (setting [10]) it was 3.1 µM; in assay [3] (setting [11]) it was 0.236 µM; in assay [4] (setting [12]), 0.007 µM.
For `O=C1CCCCc2c(Cl)cc3[nH]ncc3c2-c2ncc3c(nc(OC[C@@]45CCCN4C[C@H](F)C5)nc3c2F)N2C[C@@H](O)C[C@H](C2)N1` (racemic) [Example 275, (17R,19S)-9-chloro-30-fluoro-24-(((2R,7aS)-2-fluorotetrahydro-1H-pyrrolo[1,2-a]pyrrol-7a(5H)-yl)methoxy)-19-hydroxy-5,6,16,21,23,25,29-heptaazahexacyclo[24.3.1.1~17,21~.0~2,10~.0~3,7~.0~22,27~]hentriaconta-1(30),2,4,7,9,22,24,26,28-nonaen-15-one], the IC50 is 0.006 µM in assay [1] (setting [9]), 0.778 µM in assay [2] (setting [10]), 0.0531 µM in assay [3] (setting [11]) and 0.003 µM in assay [4] (setting [12]).
On to `O=C1N[C@@H]2CC[C@H](O)CN(C2)c2nc(OC[C@@]34CCCN3C[C@H](F)C4)nc3c(F)c(ncc23)-c2c(c(Cl)cc3[nH]ncc23)CCCO1` (racemic) [Example 282, (26R,29S)-18-chloro-32-fluoro-4-(((2R,7aS)-2-fluorotetrahydro-1H-pyrrolo[1,2-a]pyrrol-7a(5H)-yl)methoxy)-29-hydroxy-23-oxa-1,3,5,9,14,15,25-heptaazahexacyclo[24.4.1.1~6,10~.0~2,7~.0~11,19~.0~12,16~]dotriaconta-2,4,6(32),7,9,11,13,16,18-nonaen-24-one], for which the IC50 in assay [1] (setting [9]) came out at 0.007 µM; in assay [2] (setting [10]), 1.19 µM; in assay [3] (setting [11]), 0.133 µM; in assay [4] (setting [12]), 0.003 µM.
As to `Cc1cc2[nH]ncc2c2c1/C=C\COC(=O)O[C@@H]1CCCN(C1)c1nc(OC[C@@]34CCCN3C[C@H](F)C4)nc3c(F)c-2ncc13` (single isomer, unassigned) [Example 123], the IC50 turned out to be 0.008 µM in assay [1] (setting [9]), 0.65 µM in assay [2] (setting [10]), 0.104 µM in assay [3] (setting [11]) and 0.004 µM in assay [4] (setting [12]).
With `Fc1c2ncc3c(nc(OC[C@@]45CCCN4C[C@H](F)C5)nc13)N1CCOC[C@H](COCCCCc3c(Cl)cc4[nH]ncc4c3-2)C1` (single isomer, unassigned) [Example 136], the IC50 amounted to 0.007 µM in assay [1] (setting [9]), 0.67 µM in assay [2] (setting [10]), 0.077 µM in assay [3] (setting [11]) and 0.003 µM in assay [4] (setting [12]).
In the case of `O[C@@H]1C[C@@H]2CN(C1)c1nc(OC[C@@]34CCCN3C[C@H](F)C4)nc3c(F)c(ncc13)-c1c(c(Cl)cc3[nH]ncc13)CCCn1ncc2n1` (single isomer, unassigned) [Example 299], the IC50 in assay [1] (setting [9]) amounted to 0.03 µM; in assay [2] (AsPC-1, 72 h) it was 5 µM; in assay [3] (setting [13]) it was 0.467 µM; in assay [4] (setting [12]) it was 0.021 µM.
As to `O[C@@H]1C[C@@H]2CN(C1)c1nc(OC[C@@]34CCCN3C[C@H](F)C4)nc3c(F)c(ncc13)-c1c(c(Cl)cc3[nH]ncc13)CCCn1ncc2n1` (single isomer, unassigned) [Example 300], the IC50 in assay [1] (setting [9]) came out at 0.01 µM; in assay [2] (AsPC-1, 72 h) it was 0.281 µM; in assay [3] (setting [13]), 0.0232 µM; in assay [4] (setting [12]), 0.005 µM.
As for `CN(C)CC1(COc2nc3c4cnc(c(F)c4n2)-c2c(c(Cl)cc4[nH]ncc24)CCCOC(=O)O[C@]2(C)COCCN3C2)CC1` (single isomer, unassigned) [Example 331], the IC50 in assay [1] (setting [9]) was 0.005 µM; in assay [2] (setting [10]), 0.115 µM; in assay [3] (setting [11]), 0.0154 µM; in assay [4] (setting [12]), 0.003 µM.
In the case of `Fc1c2ncc3c(nc(OC[C@@]45CCCN4C[C@H](F)C5)nc13)N1CCOC[C@H](Cc3ncc(o3)CCc3c(Cl)cc4[nH]ncc4c3-2)C1` (single isomer, unassigned) [Example 375], the IC50 worked out at 0.027 µM in assay [1] (setting [5]), 3.12 µM in assay [2] (setting [6]), 0.673 µM in assay [3] (setting [7]) and 0.015 µM in assay [4] (setting [8]).
As for `Fc1c2ncc3c(nc(OC[C@@]45CCCN4C[C@H](F)C5)nc13)N1CCOC[C@@H](Cc3ncc(o3)CCc3c(Cl)cc4[nH]ncc4c3-2)C1` (single isomer, unassigned) [Example 376], the IC50 in assay [1] (setting [5]) was found to be 0.016 µM; in assay [2] (setting [6]), 2.06 µM; in assay [3] (setting [7]), 0.35 µM; in assay [4] (setting [8]), 0.011 µM.
Consider `CN(C)CC1(COc2nc3c4cnc(c(F)c4n2)-c2c(c(Cl)cc4[nH]ncc24)CCCCOCC2(F)CCCCN3C2)CC1` (stereo in doubt) [Example 400, 1-(1-((((26R)-18-chloro-26,32-difluoro-24-oxa-1,3,5,9,14,15-hexaazahexacyclo[24.4.1.1~6,10~.0~2,7~.0~11,19~.0~12,16~]dotriaconta-2,4,6,8,10(32),11,13,16,18-nonaen-4-yl)oxy)methyl)cyclopropyl)-N,N-dimethylmethanamine], for which the IC50 in assay [1] (setting [5]) turned out to be 0.015 µM; in assay [2] (setting [6]) it was 0.817 µM; in assay [3] (setting [7]), 0.371 µM; in assay [4] (setting [8]), 0.008 µM.
`CN(C)CC1(COc2nc3c4cnc(c(F)c4n2)-c2c(c(Cl)cc4[nH]ncc24)CCCCOCC2(F)CCCCN3C2)CC1` (stereo in doubt) [Example 401, 1-(1-((((26S)-18-chloro-26,32-difluoro-24-oxa-1,3,5,9,14,15-hexaazahexacyclo[24.4.1.1~6,10~.0~2,7~.0~11,19~.0~12,16~]dotriaconta-2,4,6,8,10(32),11,13,16,18-nonaen-4-yl)oxy)methyl)cyclopropyl)-N,N-dimethylmethanamine]: the IC50 in assay [1] (setting [5]) worked out at 0.005 µM; in assay [2] (setting [6]), 0.386 µM; in assay [3] (setting [7]), 0.289 µM; in assay [4] (setting [8]), 0.003 µM.
With `C[C@@]12CCCN(C1)c1nc(OC[C@@]34CCCN3C[C@H](F)C4)nc3c(F)c(ncc13)-c1cccc3ccc(F)c(c13)CC[C@@H](F)C(=O)N2` [Example 2, (15R,18R)-18,22,31-trifluoro-8-(((2R,7aS)-2-fluorotetrahydro-1H-pyrrolo[1,2-a]pyrrol-7a(5H)-yl)methoxy)-15-methyl-3,7,9,11,16-pentaazahexacyclo[19.7.1.1˜2,6˜.1˜11,15˜.0˜5,10˜.0˜25,29˜]hentriaconta-1(28),2(31),3,5,7,9,21,23,25(29),26-decaen-17-one], the IC50 came to 0.05 µM in assay [1] (setting [9]), 4.11 µM in assay [2] (setting [10]), 1.4 µM in assay [3] (setting [11]) and 0.024 µM in assay [4] (setting [12]).
